Test system: HBV
Assay: HBV-DNA Antiviral Assay Using HepG2.117 Cells (intracellular HBV DNA by qPCR)
Assay type: cell-based, hepatitis B virus (genotype D)
Details: Hepatitis B virus, HepG2.117
Summary of the method: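 HepG2.117 cells (genotype D HBV, Tet-off) were induced by doxycycline withdrawal and treated for 3 days with 9 concentrations in 4-fold dilution, 2% DMSO final. Intracellular HBV DNA was measured by qPCR against a standard curve, with ATPlite viability read in parallel. EC50, EC90 and CC50 came from fits against the DMSO control.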

O=C(NCc1ccccc1)c1c2n(c(=O)n1-c1cccc(F)c1)CCN(C(=O)c1ccc(Br)c(Cl)c1)C2 [Example 23, N-benzyl-7-(4-bromo-3-chloro-benzoyl)-2-(3-fluorophenyl)-3-oxo-6,8-dihydro-5H-imidazo[1,5-a]pyrazine-1-carboxamide]
EC50: 500 to 5000 nM

COc1ccc(-n2c(C(=O)NCc3ccccc3)c3n(c2=O)CCN(C(=O)c2ccc(Br)c(Cl)c2)C3)cc1 [Example 24, N-benzyl-7-(4-bromo-3-chloro-benzoyl)-2-(4-methoxyphenyl)-3-oxo-6,8-dihydro-5H-imidazo[1,5-a]pyrazine-1-carboxamide]
EC50: 100 to 500 nM

NC(=O)c1ccc(-n2c(C(=O)NCc3ccccc3)c3n(c2=O)CCN(C(=O)c2ccc(Br)c(Cl)c2)C3)cc1 [Example 25, N-benzyl-7-(4-bromo-3-chloro-benozyl)-2-(4-carbamoylphenyl)-3-oxo-6,8-dihydro-5H-imidazo[1,5-a]pyrazine-1-carboxamide]
EC50: > 5000 nM

O=C(NCc1ccccc1)c1c2n(c(=O)n1-c1ccc(Cl)cc1)CCN(C(=O)c1ccc(Br)c(Cl)c1)C2 [Example 26, N-benzyl-7-(4-bromo-3-chloro-benzoyl)-2-(4-chlorophenyl)-3-oxo-6,8-dihydro-5H-imidazo[1,5-a]pyrazine-1-carboxamide]
EC50: 500 to 5000 nM

CN(Cc1ccccc1)C(=O)c1c2n(c(=O)n1-c1ccccc1)CCN(C(=O)c1ccc(Br)c(Cl)c1)C2 [Example 27, N-benzyl-7-(4-bromo-3-chloro-benzoyl)-N-methyl-3-oxo-2-phenyl-6,8-dihydro-5H-imidazo[1,5-a]pyrazine-1-carboxamide]
EC50: 500 to 5000 nM

O=C(NCCc1ccccc1)c1c2n(c(=O)n1-c1ccccc1)CCN(C(=O)c1ccc(Br)c(Cl)c1)C2 [Example 28, 7-(4-bromo-3-chloro-benzoyl)-3-oxo-2-phenyl-N-(2-phenylethyl)-6,8-dihydro-5H-imidazo[1,5-a]pyrazine-1-carboxamide]
EC50: 500 to 5000 nM

O=C(NCc1ccccc1)c1c2n(c(=O)n1-c1cccc(Cl)c1)CCN(C(=O)c1ccc(Br)c(Cl)c1)C2 [Example 29, N-benzyl-7-(4-bromo-3-chloro-benzoyl)-2-(3-chlorophenyl)-3-oxo-6,8-dihydro-5H-imidazo[1,5-a]pyrazine-1-carboxamide]
EC50: 500 to 5000 nM

CC(C)(NC(=O)c1c2n(c(=O)n1-c1ccccc1)CCN(C(=O)c1ccc(Br)c(Cl)c1)C2)c1ccccc1 [Example 30, 7-(4-bromo-3-chloro-benzoyl)-N-(1-methyl-1-phenyl-ethyl)-3-oxo-2-phenyl-6,8-dihydro-5H-imidazo[1,5-a]pyrazine-1-carboxamide]
EC50: > 5000 nM

O=C(NC1(c2ccccc2)CC1)c1c2n(c(=O)n1-c1ccccc1)CCN(C(=O)c1ccc(Br)c(Cl)c1)C2 [Example 31, 7-(4-bromo-3-chloro-benzoyl)-3-oxo-2-phenyl-N-(1-phenylcyclopropyl)-6,8-dihydro-5H-imidazo[1,5-a]pyrazine-1-carboxamide]
EC50: > 5000 nM

COc1ccc(CNC(=O)c2c3n(c(=O)n2-c2ccccc2)CCN(C(=O)c2ccc(Br)c(Cl)c2)C3)cc1OC [Example 32, 7-(4-bromo-3-chloro-benzoyl)-N-[(3,4-dimethoxyphenyl)methyl]-3-oxo-2-phenyl-6,8-dihydro-5H-imidazo[1,5-a]pyrazine-1-carboxamide]
EC50: 100 to 500 nM

COc1cccc(CNC(=O)c2c3n(c(=O)n2-c2ccccc2)CCN(C(=O)c2ccc(Br)c(Cl)c2)C3)c1 [Example 33, 7-(4-bromo-3-chloro-benzoyl)-N-[(3-methoxyphenyl)methyl]-3-oxo-2-phenyl-6,8-dihydro-5H-imidazo[1,5-a]pyrazine-1-carboxamide]
EC50: 100 to 500 nM

O=C(NCc1ccccc1)c1c2n(c(=O)n1-c1ccccc1)CCN(C(=O)c1ccc(Cl)c(Cl)c1)C2 [Example 34, N-benzyl-7-(3,4-dichlorobenzoyl)-3-oxo-2-phenyl-6,8-dihydro-5H-imidazo[1,5-a]pyrazine-1-carboxamide]
EC50: 500 to 5000 nM

NC(=O)c1cccc(-n2c(C(=O)NCc3ccccc3)c3n(c2=O)CCN(C(=O)c2ccc(Br)c(Cl)c2)C3)c1 [Example 35, N-benzyl-7-(4-bromo-3-chloro-benzoyl)-2-(3-carbamoylphenyl)-3-oxo-6,8-dihydro-5H-imidazo[1,5-a]pyrazine-1-carboxamide]
EC50: > 5000 nM

CNC(=O)c1ccc(-n2c(C(=O)NCc3ccccc3)c3n(c2=O)CCN(C(=O)c2ccc(Br)c(Cl)c2)C3)cc1 [Example 36, N-benzyl-7-(4-bromo-3-chloro-benzoyl)-2-[4-(methylcarbamoyl)phenyl]-3-oxo-6,8-dihydro-5H-imidazo[1,5-a]pyrazine-1-carboxamide]
EC50: > 5000 nM

COc1ccc(CNC(=O)c2c3n(c(=O)n2-c2ccccc2)CCN(C(=O)c2ccc(Br)c(Cl)c2)C3)c(C)c1 [Example 39, 7-(4-bromo-3-chloro-benzoyl)-N-[(4-methoxy-2-methyl-phenyl)methyl]-3-oxo-2-phenyl-6,8-dihydro-5H-imidazo[1,5-a]pyrazine-1-carboxamide]
EC50: 100 to 500 nM

COc1ccc(CNC(=O)c2c3n(c(=O)n2-c2ccccc2)CCN(C(=O)c2ccc(Br)c(Cl)c2)C3)c(F)c1 [Example 40, 7-(4-bromo-3-chloro-benzoyl)-N-[(2-fluoro-4-methoxy-phenyl)methyl]-3-oxo-2-phenyl-6,8-dihydro-5H-imidazo[1,5-a]pyrazine-1-carboxamide]
EC50: 100 to 500 nM

COc1cccc(-n2c(C(=O)NCc3ccccc3)c3n(c2=O)CCN(C(=O)c2ccc(Br)c(Cl)c2)C3)c1 [Example 41, N-benzyl-7-(4-bromo-3-chloro-benzoyl)-2-(3-methoxyphenyl)-3-oxo-6,8-dihydro-5H-imidazo[1,5-a]pyrazine-1-carboxamide]
EC50: 500 to 5000 nM

N#Cc1cccc(-n2c(C(=O)NCc3ccccc3)c3n(c2=O)CCN(C(=O)c2ccc(Br)c(Cl)c2)C3)c1 [Example 44, N-benzyl-7-(4-bromo-3-chloro-benzoyl)-2-(3-cyanophenyl)-3-oxo-6,8-dihydro-5H-imidazo[1,5-a]pyrazine-1-carboxamide]
EC50: 500 to 5000 nM

CS(=O)(=O)c1ccc(-n2c(C(=O)NCc3ccccc3)c3n(c2=O)CCN(C(=O)c2ccc(Br)c(Cl)c2)C3)cc1 [Example 45, N-benzyl-7-(4-bromo-3-chloro-benzoyl)-2-(4-methylsulfonylphenyl)-3-oxo-6,8-dihydro-5H-imidazo[1,5-a]pyrazine-1-carboxamide]
EC50: 500 to 5000 nM

CS(=O)(=O)c1cccc(-n2c(C(=O)NCc3ccccc3)c3n(c2=O)CCN(C(=O)c2ccc(Br)c(Cl)c2)C3)c1 [Example 46, N-benzyl-7-(4-bromo-3-chloro-benzoyl)-2-(3-methylsulfonylphenyl)-3-oxo-6,8-dihydro-5H-imidazo[1,5-a]pyrazine-1-carboxamide]
EC50: > 5000 nM

NS(=O)(=O)c1cccc(-n2c(C(=O)NCc3ccccc3)c3n(c2=O)CCN(C(=O)c2ccc(Br)c(Cl)c2)C3)c1 [Example 47, N-benzyl-7-(4-bromo-3-chloro-benzoyl)-3-oxo-2-(3-sulfamoylphenyl)-6,8-dihydro-5H-imidazo[1,5-a]pyrazine-1-carboxamide]
EC50: > 5000 nM

CNC(=O)c1cccc(-n2c(C(=O)NCc3ccccc3)c3n(c2=O)CCN(C(=O)c2ccc(Br)c(Cl)c2)C3)c1 [Example 48, N-benzyl-7-(4-bromo-3-chloro-benzoyl)-2-[3-(methylcarbamoyl)phenyl]-3-oxo-6,8-dihydro-5H-imidazo[1,5-a]pyrazine-1-carboxamide]
EC50: 500 to 5000 nM

O=C(NCc1ccccc1)c1c2n(c(=O)n1-c1cccnc1)CCN(C(=O)c1ccc(Cl)c(Cl)c1)C2 [Example 49, N-benzyl-7-(3,4-dichlorobenzoyl)-3-oxo-2-(3-pyridyl)-6,8-dihydro-5H-imidazo[1,5-a]pyrazine-1-carboxamide]
EC50: > 5000 nM

COc1ccc(-n2c(C(=O)NCc3ccccc3)c3n(c2=O)CCN(C(=O)c2ccc(Cl)c(Cl)c2)C3)cc1Cl [Example 50, N-benzyl-2-(3-chloro-4-methoxy-phenyl)-7-(3,4-dichlorobenzoyl)-3-oxo-6,8-dihydro-5H-imidazo[1,5-a]pyrazine-1-carboxamide]
EC50: > 5000 nM

CCOc1ccc(-n2c(C(=O)NCc3ccccc3)c3n(c2=O)CCN(C(=O)c2ccc(Cl)c(Cl)c2)C3)cc1 [Example 51, N-benzyl-7-(3,4-dichlorobenzoyl)-2-(4-ethoxyphenyl)-3-oxo-6,8-dihydro-5H-imidazo[1,5-a]pyrazine-1-carboxamide]
EC50: 500 to 5000 nM

CC(C)Oc1ccc(-n2c(C(=O)NCc3ccccc3)c3n(c2=O)CCN(C(=O)c2ccc(Cl)c(Cl)c2)C3)cc1 [Example 52]
EC50: 500 to 5000 nM

COc1ccc(-n2c(C(=O)NCc3ccnnc3)c3n(c2=O)CCN(C(=O)c2ccc(Cl)c(Cl)c2)C3)cc1 [Example 53, 7-(3,4-dichlorobenzoyl)-2-(4-methoxyphenyl)-3-oxo-N-(pyridazin-4-ylmethyl)-6,8-dihydro-5H-imidazo[1,5-a]pyrazine-1-carboxamide]
EC50: > 5000 nM

COc1ccc(-n2c(C(=O)NCc3ccccc3)c3n(c2=O)CCN(C(=O)c2ccc(Cl)c(Cl)c2)C3)cc1 [Example 54, N-benzyl-7-(3,4-dichlorobenzoyl)-2-(4-methoxyphenyl)-3-oxo-6,8-dihydro-5H-imidazo[1,5-a]pyrazine-1-carboxamide]
EC50: 500 to 5000 nM

COc1ccc(-n2c(C(=O)NCc3ccccc3)c3n(c2=O)CCN(C(=O)c2cc4c(C)cccc4[nH]2)C3)cc1 [Example 55, N-benzyl-2-(4-methoxyphenyl)-7-(4-methyl-1H-indole-2-carbonyl)-3-oxo-6,8-dihydro-5H-imidazo[1,5-a]pyrazine-1-carboxamide]
EC50: 500 to 5000 nM

COc1ccc(-n2c(C(=O)NCc3ccccc3)c3n(c2=O)CCN(C(=O)c2cc4c(Cl)cccc4[nH]2)C3)cc1 [Example 56, N-benzyl-7-(4-chloro-1H-indole-2-carbonyl)-2-(4-methoxyphenyl)-3-oxo-6,8-dihydro-H-imidazo[1,5-a]pyrazine-1-carboxamide]
EC50: 100 to 500 nM

From patent publication US11591341B2 (ALIGOS THERAPEUTICS, INC., priority 2019, dated 2023)
